From patent publication USRE44962E1, “Genetically engineered plant cells and plants exhibiting resistance to glutamine synthetase inhibitors, DNA fragments and recombinants for use in the production of said cells and plants” (Bayer Cropscience N.V., priority 1986, dated 2014)

Test system: S. lividans
Type: cell-based
Settings: relative to S. lividans without the plasmid

CC(NC(=O)C(C)NC(=O)C(N)CCP(C)(=O)O)C(=O)O (stereo not shown) [Bialaphos]
resistance to Bialaphos of S. lividans strains containing pBG20: more than 500 times
